Test results: patent US7964531B2, “3-phenoxy-4-pyridazinol derivatives and herbicidal composition containing the same” (Mitsui Chemicals Agro, Inc., priority 2001, dated 2011)

Legend:
Assay type in all cases: in vivo
Conditions in all cases: wettable powder applied 3 days after transplanting, judged after 25 days
Cyperus serotinus = test: Test Example 1: herbicidal effects, paddy-field pot test
Summary of the method: (§1)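 First, paddy soil was potted and seeded at the surface layer with non-dormant weed seeds; germinated Cyperus serotinus tubers were planted and 2.2-leaf rice transplanted. Three days later, diluted wettable powder was applied under flooding. Inhibition was rated 0–5 after 25 days.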

[1] = tested on: barnyardgrass (Echinochloa oryzicola Vasing.); test: as above
Summary of the method: as §1

Scirpus joncoides = test: as above
Summary of the method: as §1

[2] = tested on: annual broad-leaved weeds (Lindernia spp., Rotala indica); test: as above
Summary of the method: as §1

[3] = tested on: transplanted paddy-field rice; test: Test Example 1: crop injury against transplanted paddy-field rice
Summary of the method: as §1

| SMILES | Herbicidal effects Cyperus serotinus (Cyperus serotinus; chemical dosage 10 g/a) | Herbicidal effects Cyperus serotinus (Cyperus serotinus; chemical dosage 20 g/a) | Herbicidal effects Barnyard grass ([1]; chemical dosage 10 g/a) | Herbicidal effects Barnyard grass ([1]; chemical dosage 20 g/a) | Herbicidal effects Scirpus joncoides (Scirpus joncoides; chemical dosage 10 g/a) | Herbicidal effects Scirpus joncoides (Scirpus joncoides; chemical dosage 20 g/a) | Herbicidal effects Broad leaf ([2]; chemical dosage 10 g/a) | Herbicidal effects Broad leaf ([2]; chemical dosage 20 g/a) | Crop injury against transplanted rice ([3]; chemical dosage 10 g/a) | Crop injury against transplanted rice ([3]; chemical dosage 20 g/a) |
| --- | --- | --- | --- | --- | --- | --- | --- | --- | --- | --- |
| CCCS(=O)(=O)Oc1cc(Cl)nnc1Oc1cccc2c1CCC2 [Example 361] | 4 (Growth inhibition rate; 71 to 90%) | 5 (Growth inhibition rate; 91 to 100%) | 2 (Growth inhibition rate; 31 to 50%) | 3 (Growth inhibition rate; 51 to 70%) | 5 (Growth inhibition rate; 91 to 100%) | 5 (Growth inhibition rate; 91 to 100%) | 5 (Growth inhibition rate; 91 to 100%) | 5 (Growth inhibition rate; 91 to 100%) | 0 (Growth inhibition rate; 0 to 10%) | 0 (Growth inhibition rate; 0 to 10%) |
| O=S(=O)(Oc1cc(Cl)nnc1Oc1ccccc1C1CC1)c1ccccc1 [Example 365] | 5 (Growth inhibition rate; 91 to 100%) | 5 (Growth inhibition rate; 91 to 100%) | 2 (Growth inhibition rate; 31 to 50%) | 3 (Growth inhibition rate; 51 to 70%) | 4 (Growth inhibition rate; 71 to 90%) | 5 (Growth inhibition rate; 91 to 100%) | 5 (Growth inhibition rate; 91 to 100%) | 5 (Growth inhibition rate; 91 to 100%) | 0 (Growth inhibition rate; 0 to 10%) | 0 (Growth inhibition rate; 0 to 10%) |
| O=[N+]([O-])c1ccc(S(=O)(=O)Oc2cc(Cl)nnc2Oc2ccccc2C2CC2)cc1 [Example 394] | 5 (Growth inhibition rate; 91 to 100%) | 5 (Growth inhibition rate; 91 to 100%) | 2 (Growth inhibition rate; 31 to 50%) | 3 (Growth inhibition rate; 51 to 70%) | 4 (Growth inhibition rate; 71 to 90%) | 5 (Growth inhibition rate; 91 to 100%) | 5 (Growth inhibition rate; 91 to 100%) | 5 (Growth inhibition rate; 91 to 100%) | 0 (Growth inhibition rate; 0 to 10%) | 0 (Growth inhibition rate; 0 to 10%) |
